The values below are quoted from earlier work in patent US20040192598A1, “Composition and method of alleviating adverse side effects and/or enhancing efficacy of agents that inhibit aromatase” (priority 2000, published 2004).

One data set addresses T1, aromatase (Homo sapiens, UniProt P11511).
T1 construct: host or cells: patients (in vivo, endogenous enzyme)
T1 sequence (P11511 1-503): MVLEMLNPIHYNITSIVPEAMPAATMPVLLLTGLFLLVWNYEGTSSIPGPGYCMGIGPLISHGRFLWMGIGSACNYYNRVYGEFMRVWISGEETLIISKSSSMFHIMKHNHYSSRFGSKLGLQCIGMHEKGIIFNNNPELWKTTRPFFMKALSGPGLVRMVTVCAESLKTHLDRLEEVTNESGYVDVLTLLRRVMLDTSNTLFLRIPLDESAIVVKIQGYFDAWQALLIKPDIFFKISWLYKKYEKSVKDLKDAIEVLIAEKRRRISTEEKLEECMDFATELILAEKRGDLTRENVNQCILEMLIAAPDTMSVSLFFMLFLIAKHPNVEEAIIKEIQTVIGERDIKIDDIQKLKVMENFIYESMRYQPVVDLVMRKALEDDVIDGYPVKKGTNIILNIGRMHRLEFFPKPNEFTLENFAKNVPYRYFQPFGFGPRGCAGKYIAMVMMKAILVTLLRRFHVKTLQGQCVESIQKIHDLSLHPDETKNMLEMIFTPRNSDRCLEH
The note with it: treatment for breast cancer.

Read-outs that look alike come from different tables or passages of the source.

In the case of `CC(C)(C#N)c1cc(Cn2cncn2)cc(C(C)(C)C#N)c1` [anastrozole], the serum estrogen levels entry at aromatase is given as “suppress serum estrogen levels to the limit of assay detection”.
In the case of `Clc1ccccc1C(c1ccccc1)(c1ccccc1)n1ccnc1` [clotrimazole], the “relative risk for spontaneous abortion” value (in vivo) is “increased relative risk was also noted”.
With `N#Cc1ccc(C(c2ccc(C#N)cc2)n2cncn2)cc1` [Letrozole], the serum estrogen levels entry at aromatase was “suppress serum estrogen levels to the limit of assay detection”.
Consider `C[C@@H]1[C@H](O)[C@@H](C)/C=C/C=C/CC/C=C/C=C/C=C/C=C/C(O[C@H]2O[C@H](C)[C@@H](O)[C@H](N)[C@@H]2O)CC2O[C@](O)(CC(O)C(O)CCC(O)CC(O)CC(O)CC(=O)O[C@H]1C)CC(O)C2C(=O)O` (stereo partly shown) [nystatin], for which the “relative risk for spontaneous abortion” value (first-trimester exposure, independent of drug therapy indication) was “not”.
